Article PMC5796108, “Effects of Acanthopanax senticosus on Brain Injury Induced by Simulated Spatial Radiation in Mouse Model Based on Pharmacokinetics and Comparative Proteomics” (International Journal of Molecular Sciences, 2018)
Read-outs that look alike come from different tables or passages of the source.

Experiment: Pharmacokinetics of syringin and eleutheroside E in mice's serum after oral AS extract (HPLC, PKsolver)
Format: in vivo, Kun-Ming mice
Details: oral AS extract 235.7 mg/kg; for MRT inf: read-out: MRT(0→∞)
Experimental: The radiation lasted 30 min. […] The serum was preserved at −20 °C standby.
The content of syringin and eleutheroside E in the samples for each time points was detected by HPLC. An Agilent 1100 series liquid chromatograph (Agilent Technologies, Santa Clara, CA, USA), equipped with a quaternary gradient pump and a UV detector was used. A HPLC method was developed using a reversed-phase C18 column (Agilent-TC, 250 mm × 4.6 mm, 5 μm i.d.) with the column temperature at 30 °C. […] The retention times are 6.041 min and 8.500 min for Syringin and eleutheroside E respectively. Contents of syringin and eleutheroside E were expressed in each case as nanograms of syringin and eleutheroside E per milliliter of mice serum.

[1] = Radiation-AS-Treatment (60Co-γ, 4 Gy)
[2] = male, Kun-Ming, mouse, po, 235.7 mg/kg, Normal-AS-Treatment
[3] = male, Kun-Ming, mouse, po, 235.7 mg/kg, Radiation-AS-Treatment (60Co-γ, 4 Gy)

In the case of `COc1cc([C@H]2OC[C@@H]3[C@@H]2CO[C@H]3c2cc(OC)c(O[C@@H]3O[C@H](CO)[C@@H](O)[C@H](O)[C@H]3O)c(OC)c2)cc(OC)c1O[C@@H]1O[C@H](CO)[C@@H](O)[C@H](O)[C@H]1O` [Eleutheroside E], the “AUC(0→∞)” value (Normal-AS-Treatment) is reported as 9.93 × 10^3 ± 1.81 × 10^3 ng⋅h⋅mL^−1, the CL (Normal-AS-Treatment) is reported as 8.30 × 10^−2 ± 7.32 × 10^−3 L⋅h^−1⋅g^−1 and the Cmax (Normal-AS-Treatment) is reported as 2.07 × 10^3 ± 6.61 × 10^2 ng⋅mL^−1. For the same compound, the “MRT(0→∞)” value (Normal-AS-Treatment) was 14.8 ± 0.597 h, the Tmax (Normal-AS-Treatment) was 0.5 ± 0.192 h and the t1/2 (Normal-AS-Treatment) was 17.2 ± 0.722 h. The “AUC(0→∞)” value [1] was 1.20 × 10^4 ± 3.63 × 10^3 ng⋅h⋅mL^−1, the CL [1] was 6.89 × 10^−2 ± 7.17 × 10^−3 L⋅h^−1⋅g^−1 and the Cmax [1] was 2.11 × 10^3 ± 5.93 × 10^2 ng⋅mL^−1. The “MRT(0→∞)” value [1] was 21.1 ± 0.701 h, the Tmax [1] was 0.5 ± 0.321 h and the t1/2 [1] was 2.51 × 10^1 ± 5.56 × 10^0 h.

With `COc1cc(/C=C/CO)cc(OC)c1O[C@@H]1O[C@H](CO)[C@@H](O)[C@H](O)[C@H]1O` [Syringin] the CL (Normal-AS-Treatment) was 2.91 × 10^0 ± 5.65 × 10^−1 L⋅h^−1⋅g^−1, the Vd (Normal-AS-Treatment) was 2.72 × 10^1 ± 8.73 × 10^−1 L⋅g^−1 and the CL [1] was 1.54 × 10^0 ± 1.86 × 10^−1 L⋅h^−1⋅g^−1. For the same compound, the Tmax [1] was 0.5 ± 0.237 h, the Vd [1] was 2.17 × 10^1 ± 9.19 × 10^−1 L⋅g^−1 and the Tmax (male, Kun-Ming, mouse, Normal-AS-Treatment, read-out: Tmax) was 0.5 h. For the same compound, the AUC(0-inf) [2] was 283 ng·h/mL, the half-life [2] was 6.47 h and the Cmax (male, Kun-Ming, mouse, po, 235.7 mg/kg, Normal-AS-Treatment, read-out: Cmax) was 170 ng/mL. It also gave an MRT inf [2] of 4.58 h, an AUC(0-inf) [3] of 534 ng·h/mL and a half-life [3] of 9.72 h. The Cmax (male, Kun-Ming, mouse, po, 235.7 mg/kg, Radiation-AS-Treatment (60Co-γ, 4 Gy), read-out: Cmax) was 212 ng/mL and the MRT inf [3] was 5.95 h.
